Data from ChEMBL document CHEMBL5321242, “Design and synthesis of 4-acetoxypentanamide derivatives of spliceostatin A and their biological evaluation towards prostate cancer treatment” (Bioorg Med Chem Lett, 2023).
≈ marks a conversion by molar mass, not a printed value.

Tests used:
[1] = Partition coefficient, logD of the compound; type: physicochemical; details: octanol/water
[2] = Metabolic stability in mouse liver microsome assessed as parent compound remaining measured at 60 mins; type: ADME; details: liver microsomes, read-out: Stability
PNT2 = assay: Cytotoxicity against human PNT2 cells assessed as reduction in cell viability upto 200 nM by MTS assay; type: toxicity, cell-based; details: pnt2, 0.2 µM
[3] = Metabolic stability in mouse liver microsome assessed as parent compound remaining measured at 10 mins; type: ADME; details: liver microsomes, read-out: Stability
[4] = Apparent permeability of the compound by PAMPA assay; type: ADME
[5] = Metabolic stability in human liver microsome assessed as parent compound remaining measured at 60 mins; type: ADME; details: liver microsomes, read-out: Stability
[6] = Metabolic stability in human liver microsome assessed as parent compound remaining measured at 10 mins; type: ADME; details: liver microsomes, read-out: Stability
[7] = Solubility of the compound in PBS buffer; type: physicochemical
[8] = Inhibition of AR-V7 expression in human 22Rv1 cells; type: functional, cell-based, CWR22R

| Compound | logD [1] | remaining at 1 h [2] | Activity (PNT2) | remaining at 10 min [3] | Papp [4] | remaining at 1 h [5] | remaining at 10 min [6] | solubility [7] | IC50 [8] |
| --- | --- | --- | --- | --- | --- | --- | --- | --- | --- |
| CC(=O)O[C@@H](C)/C=C(/C)C(=O)N[C@@H]1C[C@H](C)[C@H](C/C=C(C)/C=C/[C@H]2OCC[C@@]3(CO3)[C@@H]2O)O[C@@H]1C | 3.6 | 0% | Non-Toxic | 0% | 18.5 ×10⁻⁶ cm/s | 0% | 1% | ≥ 95 µM |  |
| CO[C@]1(C)C[C@@]2(CO2)[C@H](O)[C@@H](/C=C/C(C)=C/C[C@@H]2O[C@H](C)[C@H](NC(=O)/C=C\[C@H](C)OC(C)=O)C[C@@H]2C)O1 | 3.8 | 0% |  | 2.5% |  | 0.5% | 32% | ≥ 95 µM | 0.6 nM |
| CC(C)NCC(O)COc1cccc2ccccc12 (configuration not stated) [PROPRANOLOL] |  |  |  |  | 3.5 ×10⁻⁶ cm/s |  |  |  |  |
| CC(=O)O[C@@H](C)/C=C/C(=O)N[C@@H]1C[C@H](C)[C@H](C/C=C(C)/C=C/[C@H]2OCC[C@@]3(CO3)[C@@H]2O)O[C@@H]1C | 3.2 | 0% |  | 27% | 11.3 ×10⁻⁶ cm/s | 0% | 0% | 94.7 µM (≈ 45.2 µg/mL) |  |
| CC(=O)O[C@@H](C)/C=C\C(=O)N[C@@H]1C[C@H](C)[C@H](C/C=C(C)/C=C/[C@H]2OCC[C@@]3(CO3)[C@@H]2O)O[C@@H]1C | 3.4 | 0.1% |  | 0.3% |  | 0% | 1.7% | 95 µM (≈ 45.4 µg/mL) |  |
| CC(=O)O[C@@H](C)CCC(=O)N[C@@H]1C[C@H](C)[C@H](C/C=C(C)/C=C/[C@H]2OCC[C@@]3(CO3)[C@@H]2O)O[C@@H]1C | 3.1 | 0% | Non-Toxic | 5% | 8.5 ×10⁻⁶ cm/s | 0% | 6% | ≥ 95 µM |  |
